Test [1] concerns the target T1, h-GABA-A α5β3γ2 (Homo sapiens, UniProt P18507+P31644). As to the kind of experiment: Two-electrode voltage clamp electrophysiology in Xenopus laevis oocytes expressing GABAA receptors, modulation of GABA EC20 current. The test is classed as cell-based. Set-up: host or cells: Xenopus laevis oocytes micro-injected with RNA transcripts of the subunits. The note with it: Table 1; for Efficacy (GABA) %: % modulation of GABA EC20 = 100*(Fold increase-1); for Fold increase h-GABA-A α5β3γ2 oocyte: test compound at approx. 30 fold its Ki, GABA at EC20. The essentials: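 Human α5β3γ2 GABAA receptors were expressed in Xenopus oocytes by RNA injection, with γ2 RNA 5–10-fold higher, and recorded 3–5 days later by two-electrode voltage clamp at −80 mV at room temperature. The test compound, at about 30× its Ki, was co-applied during a second GABA EC20 pulse. Efficacy is the extremum of the point-by-point ratio to the first response, expressed as 100*(Fold increase−1).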

Test [2] addresses T1, h-GABA-A α5β3γ2. As to the kind of experiment: [3H]flumazenil competition binding assay, membranes of HEK293 cells expressing GABAA receptors. The note with it: displacement of [3H]-Flumazenil 0.5 nM, HEK293 cells expressing human receptors, mean of two determinations; Table 1. The method in brief: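 Membranes from HEK293 cells transiently expressing human α5β3γ2 GABAA receptors, in Krebs-tris buffer pH 7.5, competed against [3H]flumazenil for 1 hour at 4° C to equilibrium. Bound radioactivity collected on GF/C filters and counted by liquid scintillation; Ki values are means of two determinations.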

The structures appear in SMILES notation.

`COc1cccc(-c2cnn(Cc3c(-c4ccc(C)nc4)noc3C)c(=O)c2)n1` [Example 145, 5-(6-methoxy-2-pyridyl)-2-((5-methyl-3-(6-methyl-3-pyridyl)isoxazol-4-yl)methyl)pyridazin-3-one]: on h-GABA-A α5β3γ2 [1], the “Efficacy (GABA) %” value is given as 119% and the “Fold increase h-GABA-A α5β3γ2 oocyte” value worked out at 2.19. This compound displayed a Ki at h-GABA-A α5β3γ2 [2] of 26.2 nM.

As to `Cc1ccc(-c2noc(C)c2Cn2ncc(N3CC(Oc4ccnc(Cl)c4)C3)cc2=O)cn1` [Example 147, 5-[3-[(2-chloro-4-pyridyl)oxy]azetidin-1-yl]-2-[[5-methyl-3-(6-methyl-3-pyridyl)isoxazol-4-yl]methyl]pyridazin-3-one], at h-GABA-A α5β3γ2 [1], the “Efficacy (GABA) %” value came to 170% and the “Fold increase h-GABA-A α5β3γ2 oocyte” value came to 2.7. On h-GABA-A α5β3γ2 [2], this compound displayed a Ki of 12 nM.

Take `Cc1ccc(-c2noc(C)c2Cn2ncc(-c3cncc(Cl)c3)cc2=O)cn1` [Example 148, 5-(5-chloro-3-pyridyl)-2-((5-methyl-3-(6-methyl-3-pyridyl)isoxazol-4-yl)methyl)pyridazin-3-one]: at h-GABA-A α5β3γ2 [1], the “Efficacy (GABA) %” value is recorded as 248% and the “Fold increase h-GABA-A α5β3γ2 oocyte” value came out at 3.48. Besides, the affinity at h-GABA-A α5β3γ2 [2], expressed as Ki, was 8.4 nM.

Take `Cc1ccc(-c2noc(C)c2Cn2ncc(-c3ccc(OC(F)F)nc3)cc2=O)cn1` [Example 149, 5-(6-(difluoromethoxy)pyridin-3-yl)-2-((5-methyl-3-(6-methylpyridin-3-yl)isoxazol-4-yl)methyl)pyridazin-3(2H)-one]: at h-GABA-A α5β3γ2 [1], the “Efficacy (GABA) %” value came out at 89% and the “Fold increase h-GABA-A α5β3γ2 oocyte” value was 1.89. On h-GABA-A α5β3γ2 [2], this compound had an inhibitory constant (Ki) of 20.2 nM.

As for `Cc1ccc(-c2noc(C)c2Cn2ncc(N3CC(OC(C)(C)C)C3)cc2=O)cn1` [Example 150, 5-(3-tert-butoxyazetidin-1-yl)-2-[[5-methyl-3-(6-methyl-3-pyridyl)isoxazol-4-yl]methyl]pyridazin-3-one], on h-GABA-A α5β3γ2 [1], the “Efficacy (GABA) %” value turned out to be 85% and the “Fold increase h-GABA-A α5β3γ2 oocyte” value is 1.85. The same compound displayed a Ki on h-GABA-A α5β3γ2 [2] of 30.4 nM.

As to `CCOc1ccc(-c2cnn(Cc3c(-c4ccc(C)nc4)noc3C)c(=O)c2)cn1` [Example 151, 5-(6-ethoxypyridin-3-yl)-2-((5-methyl-3-(6-methylpyridin-3-yl)isoxazol-4-yl)methyl)pyridazin-3(2H)-one], on h-GABA-A α5β3γ2 [1], the “Efficacy (GABA) %” value was determined as 119% and the “Fold increase h-GABA-A α5β3γ2 oocyte” value was 2.19. At h-GABA-A α5β3γ2 [2], this compound yielded an inhibitory constant (Ki) of 27.2 nM.

Turning to `Cc1ccc(-c2noc(C)c2Cn2ncc(-c3cnn(C4CC4)c3)cc2=O)cn1` [Example 152, 5-(1-cyclopropyl-1H-pyrazol-4-yl)-2-((5-methyl-3-(6-methylpyridin-3-yl)isoxazol-4-yl)methyl)pyridazin-3(2H)-one], at h-GABA-A α5β3γ2 [1], the “Efficacy (GABA) %” value stood at 116% and the “Fold increase h-GABA-A α5β3γ2 oocyte” value is given as 2.16. In addition, the Ki on h-GABA-A α5β3γ2 [2] stood at 28.7 nM.

Turning to `Cc1ccc(-c2noc(C)c2Cn2ncc(-c3cnn(CC(F)F)c3)cc2=O)cn1` [Example 153, 5-(1-(2,2-difluoroethyl)-1H-pyrazol-4-yl)-2-((5-methyl-3-(6-methylpyridin-3-yl)isoxazol-4-yl)methyl)pyridazin-3(2H)-one], on h-GABA-A α5β3γ2 [1], the “Efficacy (GABA) %” value was found to be 166% and the “Fold increase h-GABA-A α5β3γ2 oocyte” value was found to be 2.66. Further, at h-GABA-A α5β3γ2 [2], the affinity, expressed as Ki, was 24.2 nM.

Turning to `Cc1ccc(-c2noc(C)c2Cn2ncc(-c3cnn(C(F)F)c3)cc2=O)cn1` [Example 154, 5-(1-(difluoromethyl)-1H-pyrazol-4-yl)-2-((5-methyl-3-(6-methylpyridin-3-yl)isoxazol-4-yl)methyl)pyridazin-3(2H)-one], on h-GABA-A α5β3γ2 [1], the “Efficacy (GABA) %” value turned out to be 244% and the “Fold increase h-GABA-A α5β3γ2 oocyte” value is given as 3.44. At h-GABA-A α5β3γ2 [2], the inhibitory constant (Ki) amounted to 23.7 nM.

As for `CCn1cc(-c2cnn(Cc3c(-c4ccc(C)nc4)noc3C)c(=O)c2)cn1` [Example 155, 5-(1-ethyl-1H-pyrazol-4-yl)-2-((5-methyl-3-(6-methylpyridin-3-yl)isoxazol-4-yl)methyl)pyridazin-3(2H)-one], at h-GABA-A α5β3γ2 [1], the “Efficacy (GABA) %” value is recorded as 133% and the “Fold increase h-GABA-A α5β3γ2 oocyte” value is listed as 2.33. In addition, affinity on h-GABA-A α5β3γ2 [2] was put at a Ki of 21.6 nM.

Values taken from US11840528B2 (Hoffmann-La Roche Inc., priority 2018, dated 2023).
